Experimental data published in PubChem BioAssay (NCI).
Values joined by “and” are separate entries in the source; they are usually repeats but may differ in a detail not shown here. Equal values may be shown once.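 Method: 48-hour compound exposure of cells in 96-well plates, five concentrations, linear interpolation of endpoints. GI50: concentration for 50% inhibition of growth. TGI: total growth inhibition.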 Where a SMILES comes first, the peptide text is derived from it. The star is where a group is joined. Cbz = O=C(OCc1ccccc1)*; Boc = CC(C)(C)OC(=O)*; OSu = O=C1CCC(=O)N1O*; Bn = c1ccc(C*)cc1

Assays:
Test in all cases: NCI-60 cell line screen, 48 h
M14 melanoma = system: M14 melanoma
OVCAR-8 ovarian = system: OVCAR-8 ovarian
MDA-MB-231 breast = system: MDA-MB-231 breast
NCI-H522 lung = system: NCI-H522 lung
SF-539 CNS = system: SF-539 CNS
SR leukemia = system: SR leukemia
DU-145 prostate = system: DU-145 prostate
HS 578T breast = system: HS 578T breast
HCC-2998 colon = system: HCC-2998 colon

| Structure (SMILES) | TGI (M14 melanoma) | TGI (OVCAR-8 ovarian) | TGI (MDA-MB-231 breast) [µM] | TGI (NCI-H522 lung) [µM] | TGI (SF-539 CNS) [µM] | TGI (SR leukemia) [µM] | TGI (DU-145 prostate) | TGI (HS 578T breast) [µM] | TGI (HCC-2998 colon) [µM] | GI50 (M14 melanoma) [µM] | GI50 (OVCAR-8 ovarian) | GI50 (MDA-MB-231 breast) [µM] | GI50 (NCI-H522 lung) | GI50 (SF-539 CNS) | GI50 (HCC-2998 colon) [µM] | GI50 (HS 578T breast) | GI50 (SR leukemia) [µM] | GI50 (DU-145 prostate) [µM] |
| --- | --- | --- | --- | --- | --- | --- | --- | --- | --- | --- | --- | --- | --- | --- | --- | --- | --- | --- |
| CC[C@@]12CCC(=S)N(CCSc3ccccc3)[C@@H]1c1c(n(S(=O)(=O)c3ccc(OC)cc3)c3ccccc13)CC2 | > 100 µM | > 100 µM | > 100 | > 100 | > 100 | > 100 | > 100 µM | > 100 |  |  |  |  |  |  |  |  |  |  |
| COc1ccc2c(c1)CC[C@@H]1C2CC[C@]2(C)C(=C=CP(=O)(O)O)CCC12 (some centres not stated) | > 100 µM | > 100 µM |  | > 100 | > 100 | > 100 | > 100 µM | > 100 | > 100 |  |  |  |  |  |  |  |  |  |
| O=S(=O)(O)c1cc(O)c(N=Nc2ccc3ccccc3c2O)c2ccccc12 | 41.4 µM |  | 94.7 | 40.2 |  | > 100 | 31.6 µM | > 100 |  |  |  |  |  |  |  |  |  |  |
| c1ccc(-c2c(-c3[nH]c4ccccc4c3-c3ccccc3)[nH]c3ccccc23)cc1 | 14.9 µM | 15.6 µM | 13.8 | 14.6 | 21.3 | 7.84 | 10.8 µM | 51.6 | 3.94 |  |  |  |  |  |  |  |  |  |
| O=C(O)C1(C(O)c2ccccc2)SCCCS1 (configuration not stated) | > 10 µM | > 10 µM | > 10 |  | > 10 | > 10 | > 10 µM | > 10 |  |  |  |  |  |  |  |  |  |  |
| COC(=O)C(=O)C(C(=O)C(=O)Nc1ccc(C)c(C)c1)c1nc2ccc([N+](=O)[O-])cc2[nH]c1=O (configuration not stated) | > 100 µM | > 100 µM | > 100 | > 100 | > 100 | > 100 |  | > 100 | > 100 |  |  |  |  |  |  |  |  |  |
| O=C(O)CCC1NC(/C(=C/c2ccccc2O)NC(=O)c2ccccc2)OC1=O (configuration not stated) | > 100 µM | > 100 µM | > 100 | > 100 | > 100 |  | > 100 µM | > 100 | > 100 |  |  |  |  |  |  |  |  |  |
| CN(/N=C\c1ccc2ccccc2c1)C1=NCCCN1 |  | > 100 µM | 34.5 | 30.3 | 40.3 | > 100 | > 100 µM | 42.1 | 27.2 |  |  |  |  |  |  |  |  |  |
| CC[C@@]1(O)C(=O)OCc2c1cc1n(c2=O)Cc2c-1nc1ccccc1c2C=Nc1ccccc1N[C@@H]1c2cc3c(cc2[C@@H](c2cc(OC)c(O)c(OC)c2)[C@H]2C(=O)OC[C@@H]21)OCO3 | 6.02 µM and 1.03 µM | 2.15 µM and 4.12 µM | > 49.8 |  | 0.239 |  | 0.0979 µM and 0.0432 µM | > 100 | 24.6 | 0.0322 | 0.0551 µM and 0.28 µM | 7.04 | 0.072 µM and 0.192 µM | 0.0228 µM and < 0.005 µM | 10.3 | 4.87 µM and 0.875 µM |  |  |
| O=c1c2cc(I)ccc2nc(-c2cccs2)n1O | > 100 µM | > 100 µM |  | > 100 | > 100 | > 100 | 96.9 µM |  | > 100 |  |  |  |  |  |  |  |  |  |
| Cc1ncc(CSC(=N)N)n1Cc1ccccc1 | > 100 µM | > 100 µM | > 100 | 64.4 | > 100 |  | > 100 µM | > 100 |  |  |  |  |  |  |  |  |  |  |
| N#Cc1c(N)nc(Sc2ccccc2N)c(C#N)c1-c1ccccc1 | > 100 µM | 75 µM | 45.5 |  | 80.1 | > 100 | 52.3 µM |  | 38.3 |  |  |  |  |  |  |  |  |  |
| COc1cc2c(cc1OCCCOc1ccc(-c3cc4ccccc4c4ccccc34)cc1)N=C[C@@H]1CCCN1C2=O |  | 1.98 µM | 1.27 |  | 2.92 | 0.717 | 1.42 µM | 3.11 | 2.45 |  | 0.425 µM | 0.291 |  | 1.58 µM | 1.21 | 0.645 µM | 0.222 | 0.385 |
| CN(C)C(=O)Oc1ccc(C(=S)Nc2ccccc2)cc1 | > 100 µM | 64 µM |  | > 100 | > 100 | > 100 | > 100 µM | > 100 | > 100 |  |  |  |  |  |  |  |  |  |
| C#CCOC(=O)C(=[N+]=[N-])C(=O)CC(C)C | > 10 µM | > 10 µM | > 10 |  | > 10 | > 10 | > 10 µM | > 10 | > 10 |  |  |  |  |  |  |  |  |  |
| CCOC(=O)c1cc2c3c(cc(OC)c2[nH]1)N(C(=O)OCC)CC3 | > 100 µM | > 100 µM | > 100 |  | > 100 | > 100 | > 100 µM | > 100 | > 100 |  |  |  |  |  |  |  |  |  |
| COc1ccc(/C=N/NC(=S)Nc2cc(C)ccc2OC)cc1 | 65.6 µM | > 100 µM |  | 55.9 | 49.3 | 41.9 | > 100 µM | > 100 |  |  |  |  |  |  |  |  |  |  |
| CC(C)(C)OC(=O)NC(Cc1ccc(OCc2ccccc2)cc1)C(=O)NC(CCCCNC(=O)OCc1ccccc1)C(=O)NC(CCCCNC(=O)OCc1ccccc1)C(=O)ON1C(=O)CCC1=O (configuration not stated) (Boc-Tyr(Bn)-Lys(Cbz)-Lys(Cbz)-OSu; configuration not given here) | > 100 µM | 94.8 µM |  | 39.7 |  | > 100 | > 100 µM | 49 |  |  |  |  |  |  |  |  |  |  |
| Cc1nc(Cc2n[nH]c(C)n2)n[nH]1 | > 100 µM | > 100 µM | > 100 | > 100 | > 100 | > 100 | > 100 µM |  | > 100 |  |  |  |  |  |  |  |  |  |
| Cc1cc2c(cc1Cl)Sc1n[nH]c(=O)n1S2(=O)=O | > 100 µM | > 100 µM | > 100 | > 100 | > 100 |  | > 100 µM | > 100 | > 100 |  |  |  |  |  |  |  |  |  |
| CC(=O)N1c2cc(N=NN(C)C)ccc2NC(=O)CC1C (configuration not stated) | > 100 µM | > 100 µM | > 100 | > 100 |  |  | > 100 µM | > 100 | > 100 |  |  |  |  |  |  |  |  |  |
| CCOC(=O)c1cn(CC)c2ccc3c(c2c1=O)S(=O)(=O)C=C3 | > 100 µM | > 100 µM | > 100 | > 100 | > 100 |  | > 100 µM | > 100 | > 100 |  |  |  |  |  |  |  |  |  |
| Cc1ccccc1Nc1nc2ccccc2nc1NS(=O)(=O)c1ccccc1 | > 100 µM | > 100 µM | > 100 | > 100 | > 100 | > 100 |  | > 100 | > 100 |  |  |  |  |  |  |  |  |  |
